# Data published in US20210024542A1 (Torcept Therapeutics, Inc., priority 2018, published 2021).
# Where two headings read alike, the source gives them in different places.
# How the values were obtained:
# RL95-2 = assay: OncoPanel cell proliferation assay, RL95-2; type: cell-based, human; conditions: for Relative cell count (%) Mean: RL95-2
# Method: (§1) Cells were grown in RPMI 1640, 10% FBS, 2 mM L-alanyl-L-glutamine, 1 mM Na pyruvate, or a special medium. Cells were seeded into 384-well plates and incubated in a humidified atmosphere of 5% CO2 at 37° C. Compounds were added the day following cell seeding. At the same time, a time zero untreated cell plate was generated. After a 3-day incubation period, cells were fixed and stained to allow fluorescence imaging of nuclei. Compounds (1 mM stock solutions) were serially diluted in half-log steps from the highest test concentration ([…]), and assayed over 10 concentrations with a maximum assay concentration of 0.1% DMSO. Automated fluorescence microscopy was carried out using a Molecular Devices ImageXpress Micro XL high-content imager, and images were collected with a 4× objective. 16-bit TIFF images were acquired and analyzed with MetaXpress 5.1.0.41 software.
# (§2) Cell proliferation was measured by the fluorescence intensity of an incorporated nuclear dye. The output is referred to as the relative cell count, where the measured nuclear intensity is transformed to percent of control (POC) using the following formula: […]
# (§3) Cellular response parameters were calculated using nonlinear regression to a sigmoidal single-site dose response model:
# (§4) Where y is a response measured at concentration x, A and B are the lower and upper limits of the response, C is the concentration at the response midpoint (EC50), and D is the Hill Slope (Ref. 1).
# (§5) EC50 is the test compound concentration at the curve inflection point or half the effective response (parameter C of the fitted curve solution). GI50 is the concentration needed to reduce the observed growth by half (midway between the curve maximum and the time zero value). “Cell Count Activity Area” is an estimate of the integrated area above the curve (Barretina, et al. The Cancer Cell Line Encyclopedia enables predictive modelling of anticancer drug sensitivity. Nature 483: 603-607). […] In rare instances, values <0 or >10 may be observed. […] Curve-fitting, calculations, and report generation was performed using a custom data reduction engine and MathIQ based software (AIM).
# CRO-AP2 = assay: OncoPanel cell proliferation assay, CRO-AP2; type: cell-based, human; conditions: for Relative cell count (%) Mean: CRO-AP2
# Method: as §1, §2, §3, §4, §5
# PC-3 = assay: OncoPanel cell proliferation assay, PC-3; conditions: for Relative cell count (%) Mean: PC-3
# Method: Cells were seeded into 384-well plates and incubated in a humidified atmosphere of 5% CO2 at 37° C. Compounds were added the day following cell seeding. At the same time, a time zero untreated cell plate was generated. After a 3-day incubation period, cells were fixed and stained to allow fluorescence imaging of nuclei. Compounds (1 mM stock solutions) were serially diluted in half-log steps from the highest test concentration (1 micromol), and assayed over 10 concentrations with a maximum assay concentration of 0.1% DMSO. Automated fluorescence microscopy was carried out using a Molecular Devices ImageXpress Micro XL high-content imager, and images were collected with a 4× objective. 16-bit TIFF images were acquired and analyzed with MetaXpress 5.1.0.41 software.
# GI50 is the concentration needed to reduce the observed growth by half (midway between the curve maximum and the time zero value). […] In rare instances, values <0 or >10 may be observed. […] Curve-fitting, calculations, and report generation was performed using a custom data reduction engine and MathIQ based software (AIM).
# A101D = assay: OncoPanel cell proliferation assay, A101D; type: cell-based, human
# Method: as §1, §2, §3, §4, §5
# Hs 852.T = assay: OncoPanel cell proliferation assay, Hs 852.T; type: cell-based, human
# Method: as §1, §2, §3, §4, §5
# U-138MG = assay: OncoPanel cell proliferation assay, U-138MG; type: cell-based, human
# Method: as §1, §2, §3, §4, §5
# T24 = assay: OncoPanel cell proliferation assay, T24; type: cell-based, human; conditions: for Relative cell count (%) Mean: T24
# Method: as §1, §2, §3, §4, §5
# Hs 729 = assay: OncoPanel cell proliferation assay, Hs 729; type: cell-based, human; conditions: for Relative cell count (%) Mean: Hs 729
# Method: as §1, §2, §3, §4, §5
# [1] = Homo sapiens, 72 h, 3-day incubation, read-out: Cell Count EC50
# [2] = Homo sapiens, 72 h, 3-day incubation, read-out: Cell Count GI50
# [3] = Homo sapiens, 72 h, 3-day incubation, read-out: Cell Count IC50
smiles,measurement,setting,value
"CO[C@H]1C[C@@H]2CC[C@@H](C)[C@@](O)(O2)C(=O)C(=O)N2CCCC[C@H]2C(=O)O[C@H]([C@H](C)C[C@@H]2C[C@@H]3C[C@H]2C[C@H]3O)CC(=O)[C@H](C)/C=C(\C)[C@@H](O)[C@@H](OC)C(=O)[C@H](C)C[C@H](C)/C=C/C=C/C=C/1C [Formula I, 37R-hydroxynorbornylrapamycin]",EC50,"RL95-2; Homo sapiens, 72 h, RL95-2, 3-day incubation, read-out: Cell Count EC50",0.15 nM
same,GI50,"RL95-2; Homo sapiens, 72 h, RL95-2, 3-day incubation, read-out: Cell Count GI50",0.22 nM
same,IC50,"RL95-2; Homo sapiens, 72 h, RL95-2, 3-day incubation, read-out: Cell Count IC50",10.9 nM
same,Cell Count Activity Area,"RL95-2; RL95-2, scale 0-10",4.12
same,Relative cell count (%) Mean,RL95-2; 1.00E+00 microM,47.2%
same,Relative cell count (%) Mean,RL95-2; 1.00E−01 microM,50.6%
same,Relative cell count (%) Mean,RL95-2; 1.00E−02 microM,52.2%
same,Relative cell count (%) Mean,RL95-2; 1.00E−03 microM,59.5%
same,Relative cell count (%) Mean,RL95-2; 1.01E−04 microM,78.3%
same,Relative cell count (%) Mean,RL95-2; 3.16E−01 microM,45.6%
same,Relative cell count (%) Mean,RL95-2; 3.17E−02 microM,48.5%
same,Relative cell count (%) Mean,RL95-2; 3.17E−03 microM,52.9%
same,Relative cell count (%) Mean,RL95-2; 3.18E−04 microM,64.0%
same,Relative cell count (%) Mean,RL95-2; 3.18E−05 microM,89.3%
same,Cell Count Activity Area,"CRO-AP2; CRO-AP2, scale 0-10",5.61
same,Relative cell count (%) Mean,CRO-AP2; 1.00E+00 microM,23.3%
same,Relative cell count (%) Mean,CRO-AP2; 1.00E−01 microM,24.5%
same,Relative cell count (%) Mean,CRO-AP2; 1.00E−02 microM,27.9%
same,Relative cell count (%) Mean,CRO-AP2; 1.00E−03 microM,38.7%
same,Relative cell count (%) Mean,CRO-AP2; 1.01E−04 microM,89.0%
same,Relative cell count (%) Mean,CRO-AP2; 3.16E−01 microM,23.3%
same,Relative cell count (%) Mean,CRO-AP2; 3.17E−02 microM,23.6%
same,Relative cell count (%) Mean,CRO-AP2; 3.17E−03 microM,29.7%
same,Relative cell count (%) Mean,CRO-AP2; 3.18E−04 microM,59.0%
same,Relative cell count (%) Mean,CRO-AP2; 3.18E−05 microM,93.4%
same,EC50,"CRO-AP2; Homo sapiens, 72 h, CRO-AP2, 3-day incubation, read-out: Cell Count EC50",0.319 nM
same,GI50,"CRO-AP2; Homo sapiens, 72 h, CRO-AP2, 3-day incubation, read-out: Cell Count GI50",0.434 nM
same,IC50,"CRO-AP2; Homo sapiens, 72 h, CRO-AP2, 3-day incubation, read-out: Cell Count IC50",0.536 nM
same,EC50,"PC-3; Homo sapiens, PC-3, 72 h, read-out: Cell Count EC50",0.346 nM
same,GI50,"PC-3; Homo sapiens, PC-3, 72 h, read-out: Cell Count GI50",1.89 nM
same,IC50,"PC-3; Homo sapiens, PC-3, 72 h, read-out: Cell Count IC50",9.55 nM
same,Cell Count Activity Area,"PC-3; PC-3, scale 0-10",3.97
same,Relative cell count (%) Mean,PC-3; 1.00E+00 microM,42.2%
same,Relative cell count (%) Mean,PC-3; 1.00E−01 microM,47.9%
same,Relative cell count (%) Mean,PC-3; 1.00E−02 microM,53.6%
same,Relative cell count (%) Mean,PC-3; 1.00E−03 microM,59.2%
same,Relative cell count (%) Mean,PC-3; 1.01E−04 microM,87.3%
same,Relative cell count (%) Mean,PC-3; 3.16E−01 microM,43.8%
same,Relative cell count (%) Mean,PC-3; 3.17E−02 microM,47.1%
same,Relative cell count (%) Mean,PC-3; 3.17E−03 microM,59.0%
same,Relative cell count (%) Mean,PC-3; 3.18E−04 microM,69.1%
same,Relative cell count (%) Mean,PC-3; 3.18E−05 microM,93.7%
same,Relative cell count (%) Mean,A101D; 1.00E+00 microM,50.8%
same,Relative cell count (%) Mean,A101D; 1.00E−01 microM,57.8%
same,Relative cell count (%) Mean,A101D; 1.00E−02 microM,54.7%
same,Relative cell count (%) Mean,A101D; 1.00E−03 microM,66.8%
same,Relative cell count (%) Mean,A101D; 1.01E−04 microM,90.7%
same,Relative cell count (%) Mean,A101D; 3.16E−01 microM,52.8%
same,Relative cell count (%) Mean,A101D; 3.17E−02 microM,58.0%
same,Relative cell count (%) Mean,A101D; 3.17E−03 microM,61.9%
same,Relative cell count (%) Mean,A101D; 3.18E−04 microM,78.1%
same,Relative cell count (%) Mean,A101D; 3.18E−05 microM,95.8%
same,EC50,A101D; [1],0.322 nM
same,GI50,A101D; [2],0.999 nM
same,IC50,A101D; [3],> 1000 nM
same,Cell Count Activity Area,A101D; scale 0-10,3.52
same,Relative cell count (%) Mean,Hs 852.T; 1.00E+00 microM,67.7%
same,Relative cell count (%) Mean,Hs 852.T; 1.00E−01 microM,82.5%
same,Relative cell count (%) Mean,Hs 852.T; 1.00E−02 microM,92.9%
same,Relative cell count (%) Mean,Hs 852.T; 1.00E−03 microM,96.5%
same,Relative cell count (%) Mean,Hs 852.T; 1.01E−04 microM,106.1%
same,Relative cell count (%) Mean,Hs 852.T; 3.16E−01 microM,78.0%
same,Relative cell count (%) Mean,Hs 852.T; 3.17E−02 microM,87.7%
same,Relative cell count (%) Mean,Hs 852.T; 3.17E−03 microM,100.5%
same,Relative cell count (%) Mean,Hs 852.T; 3.18E−04 microM,105.1%
same,Relative cell count (%) Mean,Hs 852.T; 3.18E−05 microM,99.0%
same,EC50,Hs 852.T; [1],335 nM
same,GI50,Hs 852.T; [2],803 nM
same,IC50,Hs 852.T; [3],> 1000 nM
same,Cell Count Activity Area,Hs 852.T; scale 0-10,1.22
same,EC50,"U-138MG; Homo sapiens, U138-MG, 72 h, U-138MG, 3-day incubation, read-out: Cell Count EC50",0.0975 nM
same,GI50,"U-138MG; Homo sapiens, U138-MG, 72 h, U-138MG, 3-day incubation, read-out: Cell Count GI50",0.54 nM
same,IC50,"U-138MG; Homo sapiens, U138-MG, 72 h, U-138MG, 3-day incubation, read-out: Cell Count IC50",> 1000 nM
same,EC50,"U-138MG; Homo sapiens, U138-MG, Table 4 summary, U-138 MG, Glioblastoma, read-out: EC50",0.097 nM
same,Cell Count Activity Area,"U-138MG; U-138MG, scale 0-10",3.00
same,Relative cell count (%) Mean,"U-138MG; U-138MG, 1.00E+00 microM",62.8%
same,Relative cell count (%) Mean,"U-138MG; U-138MG, 1.00E−01 microM",66.3%
same,Relative cell count (%) Mean,"U-138MG; U-138MG, 1.00E−02 microM",71.3%
same,Relative cell count (%) Mean,"U-138MG; U-138MG, 1.00E−03 microM",70.6%
same,Relative cell count (%) Mean,"U-138MG; U-138MG, 1.01E−04 microM",82.1%
same,Relative cell count (%) Mean,"U-138MG; U-138MG, 3.16E−01 microM",64.5%
same,Relative cell count (%) Mean,"U-138MG; U-138MG, 3.17E−02 microM",66.8%
same,Relative cell count (%) Mean,"U-138MG; U-138MG, 3.17E−03 microM",70.9%
same,Relative cell count (%) Mean,"U-138MG; U-138MG, 3.18E−04 microM",75.7%
same,Relative cell count (%) Mean,"U-138MG; U-138MG, 3.18E−05 microM",98.2%
same,EC50,"T24; Homo sapiens, T-24, 72 h, T24, 3-day incubation, read-out: Cell Count EC50",0.102 nM
same,GI50,"T24; Homo sapiens, T-24, 72 h, T24, 3-day incubation, read-out: Cell Count GI50",0.475 nM
same,IC50,"T24; Homo sapiens, T-24, 72 h, T24, 3-day incubation, read-out: Cell Count IC50",0.905 nM
same,Cell Count Activity Area,"T24; T24, scale 0-10",4.92
same,Relative cell count (%) Mean,T24; 1.00E+00 microM,38.7%
same,Relative cell count (%) Mean,T24; 1.00E−01 microM,41.3%
same,Relative cell count (%) Mean,T24; 1.00E−02 microM,43.9%
same,Relative cell count (%) Mean,T24; 1.00E−03 microM,49.5%
same,Relative cell count (%) Mean,T24; 1.01E−04 microM,68.7%
same,Relative cell count (%) Mean,T24; 3.16E−01 microM,37.1%
same,Relative cell count (%) Mean,T24; 3.17E−02 microM,42.0%
same,Relative cell count (%) Mean,T24; 3.17E−03 microM,46.0%
same,Relative cell count (%) Mean,T24; 3.18E−04 microM,57.0%
same,Relative cell count (%) Mean,T24; 3.18E−05 microM,84.1%
same,EC50,"Hs 729; Homo sapiens, 72 h, Hs 729, 3-day incubation, read-out: Cell Count EC50",14.1 nM
same,GI50,"Hs 729; Homo sapiens, 72 h, Hs 729, 3-day incubation, read-out: Cell Count GI50",17.3 nM
same,IC50,"Hs 729; Homo sapiens, 72 h, Hs 729, 3-day incubation, read-out: Cell Count IC50",> 1000 nM
same,Cell Count Activity Area,"Hs 729; Hs 729, scale 0-10",1.80
same,Relative cell count (%) Mean,Hs 729; 1.00E+00 microM,65.5%
same,Relative cell count (%) Mean,Hs 729; 1.00E−01 microM,69.6%
